This test deals with kochia or mock cypress (Kochia scoparia, KCHSC). The experiment in a line: Field trial, post-emergence foliar application, weed control rating 0-100%. Format: in vivo. The source says: The (a) aminocyclopyrachlor or an agriculturally acceptable salt or ester thereof is mixed with or applied in combination with (b) aminopyralid or an agriculturally acceptable salt or ester thereof in an amount sufficient to induce a synergistic herbicidal effect. […] As described in the Herbicide Handbook of the Weed Science Society of America, Ninth Edition, 2007, p. 429, “‘synergism’ [is] an interaction of two or more factors such that the effect when combined is greater than the predicted effect based on the response to each factor applied separately.” Synergistic in the herbicide context can mean that the use of (a) and (b) as defined above results in an increased weed control effect compared to the weed control effects that are possible with the use of (a) or (b) alone. In some embodiments, the damage or injury to the undesired vegetation caused by the compositions and methods disclosed herein is evaluated using a scale from 0% to 100%, when compared with the untreated control vegetation, wherein 0% indicates no damage to the undesired vegetation and 100% indicates complete destruction of the undesired vegetation. […] 22 (1967)
In the Colby equation, the value E corresponds to the effect (plant damage or injury) that is to be expected if the activity of the individual compounds is additive. If the observed effect is higher than the value E calculated according to the Colby equation, then a synergistic effect is present according to the Colby equation.
Field trials were conducted with applications made to established grassland with naturally occurring weed populations. The target plants were treated with postemergence foliar applications when they were just emerged to the three-leaf stage and 0.6 centimeters (cm) (0.25 inches (in)) tall. All treatments were applied using a randomized complete block trial design, with 3 replications per treatment.
Treatments consisted of aminocyclopyrachlor in acid form and aminopyralid-triisopropanolammonium, each in water and applied alone or in combination. Spray solutions were prepared using an appropriate amount of dilution to form a 1.7 L aqueous spray solution with active ingredients in single and two way combinations. Formulated compounds were applied to the plant material with a backpack sprayer equipped with 8002 nozzles calibrated to deliver 13.5 gallon/acre (127 L/ha) at a spray height of 18-20 in (43-50 cm) above average plant canopy.
The treated plants were kochia or mock cypress (Kochia scoparia, KCHSC). The treated plots and control plots were rated blind at various intervals after application. Ratings were based on a scale of 0-100%, as discussed above, wherein 0% indicates no damage to the undesired vegetation and 100% indicates complete destruction of the undesired vegetation
Colby's equation was used to determine the herbicidal effects expected from the mixtures, as described above. The results were measured at 93 days and 183 days after the first application of the compositions. […] The herbicide tank mix combinations tested, application rates and ratios employed, plant species tested, and results are given below.

Each structure is given as a SMILES string. “And” between values parts separate entries of the source, which are not always exact repeats. Equal values may be shown once.

For `Nc1cc(Cl)nc(C(=O)O)c1Cl` [Aminopyralid-triisopropanolammonium, aminopyralid-triisopropanolammonium], the “Mean % weed control” value is, setting by setting: (aminopyralid-triisopropanolammonium alone 70 g ae/ha, 93 days) 30%; (aminopyralid-triisopropanolammonium alone 70 g ae/ha, 183 days) 16.67%; (aminopyralid-triisopropanolammonium alone 120 g ae/ha, 93 days) 20%; (aminopyralid-triisopropanolammonium alone 120 g ae/ha, 183 days) 13.3%.
For the compound `Nc1nc(C2CC2)nc(C(=O)O)c1Cl` [Aminocyclopyrachlor, 6-amino-5-chloro-2-cyclopropylpyrimidine-4-carboxylic acid], the “Mean % weed control” value (aminocyclopyrachlor alone 140 g ae/ha, 93 days after application) was 56.67% and 56.7%; the “Mean % weed control” value (aminocyclopyrachlor alone 140 g ae/ha, 183 days after application) was 45%.

For the origin of these results see patent US9439424B2, “Synergistic weed control from applications of aminocyclopyrachlor and aminopyralid” (Dow AgroSciences LLC, priority 2012, dated 2016).
